Assay results from PMC6979384, “Characterization of the plant homeodomain (PHD) reader family for their histone tail interactions” (Epigenetics & Chromatin, 2020).

Tests used:
Assay in all cases: Histone peptide microarray
Assay type in all cases: binding, human
ING5 = conditions: sheet "Array Heatmap"; GST-tagged ING5; arrays performed twice, total replicate number n = 4
Source text: (§1) To more comprehensively define the histone interactions of the 31 PHD readers identified from the domain microarray analyses, we probed each on an alternate microarray platform containing a library of 293 synthetic histone peptides with single or combinatorial PTMs (Additional file 2: Figure S4 and Additional file 3: Table S2).
(§2) The 31 GST-tagged PHD readers identified in the PHD finger domain array were expressed and purified as previously. Histone peptide arrays and peptide pulldown assays were conducted as recently described (specifically, the optimized protocol from Petell et al. for the former).
(§3) Supplementary file 13072_2020_328_MOESM3_ESM.xlsx: Additional file 3: Table S2. […] Excel Tab Peptide List is a compiled list of the entire 293 histone peptide library with amino acid sequence ranges. […] Each number corresponds to the peptide number designated in Peptide List. Excel Tab Average Signals is a compiled set of binding data: chromatin reader at 0.5 μM vs. entire 293 peptide library. Data is presented as the average and standard deviation of 4 replicates. The average signals are colored to indicate signal intensity with green being strong and white being weak/low. […] Key: red= stronger relative binding; blue = weaker relative binding. Excel Tab Array info summary is a table summarizing the domains, sequence coverage, array signal range, and noise for each of the GST-tagged readers assayed on the peptide microarrays.

DIDO1 = conditions: sheet "Array Heatmap"; GST-tagged DIDO1; arrays performed twice, total replicate number n = 4
Source text: as §1, §2, §3

BPTF (PB) = conditions: sheet "Array Heatmap"; GST-tagged BPTF (PB); arrays performed twice, total replicate number n = 4
Source text: as §1, §2, §3

KDM5B (3) = conditions: sheet "Array Heatmap"; GST-tagged KDM5B (3); arrays performed twice, total replicate number n = 4
Source text: as §1, §2, §3

PHF13 = conditions: sheet "Array Heatmap"; GST-tagged PHF13; arrays performed twice, total replicate number n = 4
Source text: as §1, §2, §3

CHD4 (PPCC) = conditions: sheet "Array Heatmap"; GST-tagged CHD4 (PPCC); arrays performed twice, total replicate number n = 4
Source text: as §1, §2, §3

PHRF1 (RP) = conditions: sheet "Array Heatmap"; GST-tagged PHRF1 (RP); arrays performed twice, total replicate number n = 4
Source text: as §1, §2, §3

KDM5A (1) = conditions: sheet "Array Heatmap"; GST-tagged KDM5A (1); arrays performed twice, total replicate number n = 4
Source text: as §1, §2, §3

PHF2 = conditions: sheet "Array Heatmap"; GST-tagged PHF2; arrays performed twice, total replicate number n = 4
Source text: as §1, §2, §3

CHD5 (PPCC) = conditions: sheet "Array Heatmap"; GST-tagged CHD5 (PPCC); arrays performed twice, total replicate number n = 4
Source text: as §1, §2, §3

ING3 = conditions: sheet "Array Heatmap"; GST-tagged ING3; arrays performed twice, total replicate number n = 4
Source text: as §1, §2, §3

KDM4C (TTP) = conditions: sheet "Array Heatmap"; GST-tagged KDM4C (TTP); arrays performed twice, total replicate number n = 4
Source text: as §1, §2, §3

MLL5 = conditions: sheet "Array Heatmap"; GST-tagged MLL5; arrays performed twice, total replicate number n = 4
Source text: as §1, §2, §3

KDM7A = conditions: sheet "Array Heatmap"; GST-tagged KDM7A; arrays performed twice, total replicate number n = 4
Source text: as §1, §2, §3

RAG2 = conditions: sheet "Array Heatmap"; GST-tagged RAG2; arrays performed twice, total replicate number n = 4
Source text: as §1, §2, §3

TRIM66 (PB) = conditions: sheet "Array Heatmap"; GST-tagged TRIM66 (PB); arrays performed twice, total replicate number n = 4
Source text: as §1, §2, §3

KDM5A (3) = conditions: sheet "Array Heatmap"; GST-tagged KDM5A (3); arrays performed twice, total replicate number n = 4
Source text: as §1, §2, §3

SP140L = conditions: sheet "Array Heatmap"; GST-tagged SP140L; arrays performed twice, total replicate number n = 4
Source text: as §1, §2, §3

ING1 = conditions: sheet "Array Heatmap"; GST-tagged ING1; arrays performed twice, total replicate number n = 4
Source text: as §1, §2, §3

AIRE (PP) = conditions: sheet "Array Heatmap"; GST-tagged AIRE (PP); arrays performed twice, total replicate number n = 4
Source text: as §1, §2, §3

BAZ2B = conditions: sheet "Array Heatmap"; GST-tagged BAZ2B; arrays performed twice, total replicate number n = 4
Source text: as §1, §2, §3

DPF2 (PPC2W2) = conditions: sheet "Array Heatmap"; GST-tagged DPF2 (PPC2W2); arrays performed twice, total replicate number n = 4
Source text: as §1, §2, §3

PHF23 = conditions: sheet "Array Heatmap"; GST-tagged PHF23; arrays performed twice, total replicate number n = 4
Source text: as §1, §2, §3

ING2 = conditions: sheet "Array Heatmap"; GST-tagged ING2; arrays performed twice, total replicate number n = 4
Source text: as §1, §2, §3

ING4 = conditions: sheet "Array Heatmap"; GST-tagged ING4; arrays performed twice, total replicate number n = 4
Source text: as §1, §2, §3

PHF21A = conditions: sheet "Array Heatmap"; GST-tagged PHF21A; arrays performed twice, total replicate number n = 4
Source text: as §1, §2, §3

KDM5B (1) = conditions: sheet "Array Heatmap"; GST-tagged KDM5B (1); arrays performed twice, total replicate number n = 4
Source text: as §1, §2, §3

PHF8 = conditions: sheet "Array Heatmap"; GST-tagged PHF8; arrays performed twice, total replicate number n = 4
Source text: as §1, §2, §3

MORC3 (CW) = conditions: sheet "Array Heatmap"; GST-tagged MORC3 (CW); arrays performed twice, total replicate number n = 4
Source text: as §1, §2, §3

TAF3 = conditions: sheet "Array Heatmap"; GST-tagged TAF3; arrays performed twice, total replicate number n = 4
Source text: as §1, §2, §3

CHD5 (PCC) = conditions: sheet "Array Heatmap"; GST-tagged CHD5 (PCC); arrays performed twice, total replicate number n = 4
Source text: as §1, §2, §3

Substance	Array Heatmap signal, ING5 (ING5)	Array Heatmap signal, DIDO1 (DIDO1)	Array Heatmap signal, BPTF (PB) (BPTF (PB))	Array Heatmap signal, KDM5B (3) (KDM5B (3))	Array Heatmap signal, PHF13 (PHF13)	Array Heatmap signal, CHD4 (PPCC) (CHD4 (PPCC))	Array Heatmap signal, PHRF1 (RP) (PHRF1 (RP))	Array Heatmap signal, KDM5A (1) (KDM5A (1))	Array Heatmap signal, PHF2 (PHF2)	Array Heatmap signal, CHD5 (PPCC) (CHD5 (PPCC))	Array Heatmap signal, ING3 (ING3)	Array Heatmap signal, KDM4C (TTP) (KDM4C (TTP))	Array Heatmap signal, MLL5 (MLL5)	Array Heatmap signal, KDM7A (KDM7A)	Array Heatmap signal, RAG2 (RAG2)	Array Heatmap signal, TRIM66 (PB) (TRIM66 (PB))	Array Heatmap signal, KDM5A (3) (KDM5A (3))	Array Heatmap signal, SP140L (SP140L)	Array Heatmap signal, ING1 (ING1)	Array Heatmap signal, AIRE (PP) (AIRE (PP))	other results
H3 15-34: H3 15-34	0.4109	0.6822	0.3761	0.4984	0.6527	0.5968	0.4582	0.5387	0.4604	0.6174	0.5057	0.5661	0.5742	0.4439	0.2601	0.5952	0.4281	0.3812	0.5616	0.5155	Array Heatmap signal, BAZ2B (BAZ2B): 0.514; Array Heatmap signal, DPF2 (PPC2W2) (DPF2 (PPC2W2)): 0.6945; Array Heatmap signal, PHF23 (PHF23): 0.5205; Array Heatmap signal, ING2 (ING2): 0.6111; Array Heatmap signal, ING4 (ING4): 0.5265; Array Heatmap signal, PHF21A (PHF21A): 0.5191; Array Heatmap signal, KDM5B (1) (KDM5B (1)): 0.7112; Array Heatmap signal, PHF8 (PHF8): 0.3827; Array Heatmap signal, MORC3 (CW) (MORC3 (CW)): 0.3679; Array Heatmap signal, TAF3 (TAF3): 0.3059; Array Heatmap signal, CHD5 (PCC) (CHD5 (PCC)): 0.8306
H3 30-49: H3 30-49	0.2813	0.6094	0.2984	0.3902	0.5208	0.528	0.3713	0.3827	0.4841	0.4615	0.4287	0.4088	0.4726	0.3271	0.2065	0.5425	0.3525	0.3311	0.4722	0.3585	Array Heatmap signal, BAZ2B (BAZ2B): 0.368; Array Heatmap signal, DPF2 (PPC2W2) (DPF2 (PPC2W2)): 0.6079; Array Heatmap signal, PHF23 (PHF23): 0.4894; Array Heatmap signal, ING2 (ING2): 0.5897; Array Heatmap signal, ING4 (ING4): 0.3885; Array Heatmap signal, PHF21A (PHF21A): 0.4117; Array Heatmap signal, KDM5B (1) (KDM5B (1)): 0.5482; Array Heatmap signal, PHF8 (PHF8): 0.3204; Array Heatmap signal, MORC3 (CW) (MORC3 (CW)): 0.3313; Array Heatmap signal, TAF3 (TAF3): 0.2243; Array Heatmap signal, CHD5 (PCC) (CHD5 (PCC)): 0.7179
